pIC50: −log10 of the molar value.
Biological target: PD-L1 (Homo sapiens (Human), UniProt Q9NZQ7)
Assay: HTRF Assay (PD-1/PD-L1)
Assay type: binding
Conditions: PD-L1 His protein 6 nM, PD-1 Fc protein 6 nM
Procedure: PD-L1 small molecule inhibitors were diluted by 3-fold starting from 20 μM and a final concentration of 0.001 μM and added to the well. PD-1 Fc protein was added at the final concentration of 6 nM. PD-L1 His protein, PD-L1 small molecule inhibitors, and PD1 Fc proteins were added to the well in this order, with each 5 μl volume, and were incubated for 15 minutes at room temperature. […] The plate was read using PerkinElmer Envision plate reader and data was analyzed by Prism 6 software. Results are illustrated in Table 1

Sequence of PD-L1 (Q9NZQ7 19-238): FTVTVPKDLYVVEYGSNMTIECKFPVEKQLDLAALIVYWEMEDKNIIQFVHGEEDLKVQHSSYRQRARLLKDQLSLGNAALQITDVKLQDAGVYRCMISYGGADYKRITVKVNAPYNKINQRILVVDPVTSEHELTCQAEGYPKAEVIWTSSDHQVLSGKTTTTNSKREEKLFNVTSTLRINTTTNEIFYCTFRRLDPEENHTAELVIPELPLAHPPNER

Cc1c(COc2cc(OCc3cncc(C#N)c3)c(CN3CCCC[C@H]3C(=O)O)cc2Cl)cccc1-c1cccc(COc2cc(OCc3cncc(C#N)c3)c(CN3CCCC[C@H]3C(=O)O)cc2Cl)c1C [Example 27, (2S)-1-[[4-[[3-[3-[[4-[[(2S)-2-Carboxy-1-piperidyl]methyl]-2-chloro-5-[(5-cyano-3-pyridyl)methoxy]phenoxy]methyl]-2-methyl-phenyl]-2-methyl-phenyl]methoxy]-5-chloro-2-[(5-cyano-3-pyridyl)methoxy]phenyl]methyl] piperidine-2-carboxylic acid]
pIC50: 8.89

COc1cc(OCc2cccc(-c3cccc(COc4cc(OC)c(CN5CCCC[C@H]5C(=O)O)cc4Cl)c3C)c2C)c(Cl)cc1CN1CCCC[C@H]1C(=O)O [Example 29, (2S)-1-[[4-[[3-[3-[[4-[[(2S)-2-carboxy-1-piperidyl]methyl]-2-chloro-5-methoxy-phenoxy]methyl]-2-methyl-phenyl]-2-methyl-phenyl]methoxy]-5-chloro-2-methoxy-phenyl]methyl]piperidine-2-carboxylic acid]
pIC50: 8.92

From patent US12083118B2, “Substituted 1,1′-biphenyl compounds, analogues thereof, and methods using same” (Arbutus Biopharma Corporation, priority 2018, dated 2024)
